pIC50: −log10 of the molar value.
Test system: 556581-035-R-J1 tumor spheroid viability, % test/control
Assay: Anticancer human tumor 556581-035-R-J1 patient-derived ovarian carcinoma cell line growth inhibition
Details: spheroids with HUVEC and MSC; for pIC50: curve of first compound; for viability, T/C: stronger effect = lower value
Method in brief: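 Complex spheroids of malignant cells with endothelial cells and mesenchymal stem cells; agents alone or combined, from near clinical Cmax (or 10 microM if unknown) down in half-log steps, 0.25% DMSO final.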

[1] = second compound 30 pM, first compound 0.0316 µM
[2] = second compound 30 pM, first compound 0.1 µM
[3] = second compound 30 pM, first compound 0.316 µM
[4] = second compound 30 pM, first compound 1 µM
[5] = second compound 30 pM, first compound 3.16 µM
[6] = second compound 30 pM, first compound 10 µM
[7] = second compound 94.9 pM, first compound 0.0316 µM
[8] = second compound 94.9 pM, first compound 0.1 µM
[9] = second compound 94.9 pM, first compound 0.316 µM
[10] = second compound 94.9 pM, first compound 1 µM
[11] = second compound 94.9 pM, first compound 3.16 µM
[12] = second compound 94.9 pM, first compound 10 µM
[13] = second compound 0.0003 µM, first compound 0.0316 µM
[14] = second compound 0.0003 µM, first compound 0.1 µM
[15] = second compound 0.0003 µM, first compound 0.316 µM
[16] = second compound 0.0003 µM, first compound 1 µM
[17] = second compound 0.0003 µM, first compound 3.16 µM
[18] = second compound 0.0003 µM, first compound 10 µM
[19] = second compound 0.000949 µM, first compound 0.0316 µM
[20] = second compound 0.000949 µM, first compound 0.1 µM
[21] = second compound 0.000949 µM, first compound 0.316 µM
[22] = second compound 0.000949 µM, first compound 1 µM
[23] = second compound 0.000949 µM, first compound 3.16 µM
[24] = second compound 0.000949 µM, first compound 10 µM
[25] = second compound 0.003 µM, first compound 0.0316 µM
[26] = second compound 0.003 µM, first compound 0.1 µM
[27] = second compound 0.003 µM, first compound 0.316 µM
[28] = second compound 0.003 µM, first compound 1 µM
[29] = second compound 0.003 µM, first compound 3.16 µM
[30] = second compound 0.003 µM, first compound 10 µM
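Further: spheroids exposed to compounds for 7 days before viability read.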

CC(C)n1c(=O)n(C)c2cnc3cc(F)c(-c4ccc(OCCCN5CCCCC5)nc4)cc3c21 + COc1cc2c(cc1O)CCNC21CSC2c3c(OC(C)=O)c(C)c4c(c3C(COC1=O)N1C(O)C3Cc5cc(C)c(OC)c(O)c5C(C21)N3C)OCO4
pIC50 (second compound 30 pM): < 5.00
pIC50 (second compound 94.9 pM): < 5.00
pIC50 (second compound 0.0003 µM): < 5.00
pIC50 (second compound 0.000949 µM): > 7.50
pIC50 (second compound 0.003 µM): > 7.50
viability, T/C [1]: 86.3%
viability, T/C [2]: 97.8%
viability, T/C [3]: 96.5%
viability, T/C [4]: 91%
viability, T/C [5]: 89.2%
viability, T/C [6]: 73.7%
viability, T/C [7]: 94.9%
viability, T/C [8]: 98%
viability, T/C [9]: 95.6%
viability, T/C [10]: 95.6%
viability, T/C [11]: 86%
viability, T/C [12]: 66.6%
viability, T/C [13]: 96.1%
viability, T/C [14]: 96.8%
viability, T/C [15]: 98.8%
viability, T/C [16]: 97.7%
viability, T/C [17]: 84.4%
viability, T/C [18]: 62.3%
viability, T/C [19]: 44.8%
viability, T/C [20]: 35%
viability, T/C [21]: 37.1%
viability, T/C [22]: 48.5%
viability, T/C [23]: 39.1%
viability, T/C [24]: 17.6%
viability, T/C [25]: 0.76%
viability, T/C [26]: 1.38%
viability, T/C [27]: 0.61%
viability, T/C [28]: 0.59%
viability, T/C [29]: 0.42%
viability, T/C [30]: 0.65%

COc1ccc([C@@H](O)c2cc(-c3ncnc4cc(N5CCOCC5)ccc34)c(F)cc2Cl)nn1 + COc1cc2c(cc1O)CCNC21CSC2c3c(OC(C)=O)c(C)c4c(c3C(COC1=O)N1C(O)C3Cc5cc(C)c(OC)c(O)c5C(C21)N3C)OCO4
pIC50 (second compound 30 pM): 5.75
pIC50 (second compound 94.9 pM): 5.71
pIC50 (second compound 0.0003 µM): 5.69
pIC50 (second compound 0.000949 µM): > 7.50
pIC50 (second compound 0.003 µM): > 7.50
viability, T/C [1]: 97.4%
viability, T/C [2]: 102%
viability, T/C [3]: 88.2%
viability, T/C [4]: 60.5%
viability, T/C [5]: 40.1%
viability, T/C [6]: 32.8%
viability, T/C [7]: 104%
viability, T/C [8]: 102%
viability, T/C [9]: 90.5%
viability, T/C [10]: 61.6%
viability, T/C [11]: 42.7%
viability, T/C [12]: 32.3%
viability, T/C [13]: 99.5%
viability, T/C [14]: 104%
viability, T/C [15]: 86.8%
viability, T/C [16]: 67.8%
viability, T/C [17]: 40%
viability, T/C [18]: 22.4%
viability, T/C [19]: 42.1%
viability, T/C [20]: 36.5%
viability, T/C [21]: 12.3%
viability, T/C [22]: 0.69%
viability, T/C [23]: 0.37%
viability, T/C [24]: 1.03%
viability, T/C [25]: 0.59%
viability, T/C [26]: 0.87%
viability, T/C [27]: 0.65%
viability, T/C [28]: 0.7%
viability, T/C [29]: 0.82%
viability, T/C [30]: 0.98%

O=C(c1cc(Cc2n[nH]c(=O)c3ccccc23)ccc1F)N1CCN(C(=O)C2CC2)CC1 + Cn1nnc2c(C(N)=O)ncn2c1=O
pIC50 (second compound 1 µM): < 4.52
pIC50 (second compound 3.16 µM): < 4.52
pIC50 (second compound 10 µM): < 4.52
pIC50 (second compound 31.6 µM): < 4.52
pIC50 (second compound 100 µM): < 4.52
viability, T/C (second compound 1 µM, first compound 0.0949 µM): 99%
viability, T/C (second compound 1 µM, first compound 0.3 µM): 100%
viability, T/C (second compound 1 µM, first compound 0.949 µM): 102%
viability, T/C (second compound 1 µM, first compound 3 µM): 90.8%
viability, T/C (second compound 1 µM, first compound 9.49 µM): 80.2%
viability, T/C (second compound 1 µM, first compound 30 µM): 71.9%
viability, T/C (second compound 3.16 µM, first compound 0.0949 µM): 100%
viability, T/C (second compound 3.16 µM, first compound 0.3 µM): 99.8%
viability, T/C (second compound 3.16 µM, first compound 0.949 µM): 95.4%
viability, T/C (second compound 3.16 µM, first compound 3 µM): 89.9%
viability, T/C (second compound 3.16 µM, first compound 9.49 µM): 82.4%
viability, T/C (second compound 3.16 µM, first compound 30 µM): 63.9%
viability, T/C (second compound 10 µM, first compound 0.0949 µM): 98.6%
viability, T/C (second compound 10 µM, first compound 0.3 µM): 100%
viability, T/C (second compound 10 µM, first compound 0.949 µM): 98.7%
viability, T/C (second compound 10 µM, first compound 3 µM): 89.1%
viability, T/C (second compound 10 µM, first compound 9.49 µM): 74.6%
viability, T/C (second compound 10 µM, first compound 30 µM): 64.3%
viability, T/C (second compound 31.6 µM, first compound 0.0949 µM): 104%
viability, T/C (second compound 31.6 µM, first compound 0.3 µM): 101%
viability, T/C (second compound 31.6 µM, first compound 0.949 µM): 90.3%
viability, T/C (second compound 31.6 µM, first compound 3 µM): 85.3%
viability, T/C (second compound 31.6 µM, first compound 9.49 µM): 70.9%
viability, T/C (second compound 31.6 µM, first compound 30 µM): 62.9%
viability, T/C (second compound 100 µM, first compound 0.0949 µM): 92.7%
viability, T/C (second compound 100 µM, first compound 0.3 µM): 83.6%
viability, T/C (second compound 100 µM, first compound 0.949 µM): 80.2%
viability, T/C (second compound 100 µM, first compound 3 µM): 70.6%
viability, T/C (second compound 100 µM, first compound 9.49 µM): 67.9%
viability, T/C (second compound 100 µM, first compound 30 µM): 54.7%
